Measured values taken from patent US20230302159A1, “COMPOUNDS AND COMPOSITIONS FOR TUMOR DETECTION AND SURGICAL GUIDANCE” (Cornell University, priority 2020, published 2023).
“Also recorded” adds a separate entry of the source.

How the values were obtained:
[1] = pKa measurement by fluorescence intensity in the pH range 2.0-11.0 (plate reader); format: physicochemical; conditions: for pKa: 2 μM in 20 mM phosphate-buffered solution, pH 2.0-11.0, λex=725 nm, λem=785 nm; for pH dependency of fluorescence: different pH solutions
Experimental: (A) The structure of CypH-1 (B) Schematic diagram of the fluorescence activation of CypH-11 by protonation. […] Their fluorescence intensity in the pH range (2.0-11.0) was measured (λex=725 nm and λem=785 nm) using a plate reader. (D) Fluorescence image of CypH-11 and CypH-1 in a 96-well plate at different pHs.
Spectroscopic analysis. Stock solutions (1 mM in DMSO) of CypH-11, CypH-1, and Cy7 were stored at a −30° C. freezer and used for the following experiments. For the pKa measurement, the respective compound was diluted in 20 mM phosphate-buffered solution (PBS, pH 2.0-11.0) to a final concentration of 2 μM. The fluorescence intensity (λex=725 nm and λcm=785 nm) was measured on a plate reader (Tecan Infinite M1000 Pro), and the fluorescence images were recorded with a fluorescence imaging system (Bruker In-vivo F Pro). For the quantum yield measurement, indocyanine green (ICG, Φ=1.2% in water) was used as the standard compound. The respective compound (0.4, 0.8, 1.2, 1.6, and 2.0 μM) in PBS solutions (pH=4.0 and pH=7.4) was measured using a Cary 60 UV-Vis spectrophotometer and Cary Eclipse fluorescence spectrophotometer (Agilent). The slope of fluorescence vs absorbance was compared with that of ICG to calculate the relative quantum yield.

[2] = test system: OVASAHO/RFP-Luc subcutaneous tumors; test: In vivo fluorescence imaging of subcutaneous tumors by spraying, OVASAHO/RFP-Luc model; parameters: species or system mice; conditions: for fluorescence on tumor and normal tissue after spray: no washing; for signal to background ratio (tumor-to-muscle): 2 μM
Excerpt: Detection of subcutaneous tumors by spraying. To evaluate the in vivo performance of the fluorogenic probes via the “spray-and-see” technique, an OVASAHO subcutaneous tumor model was used. For a facile signal co-registration, the cells were first engineered to express red fluorescence protein (RFP). Two weeks after subcutaneous inoculating of OVASAHO/RFP-Luc cells into both flanks, the tumors reached around 5 mm in size. The skin on the tumor area was removed, then the CypH-11 or Cy7 solution (2 μM in PBS) was sprayed once onto the exposed area. The whole body fluorescence images were continuously captured at various time points without washing (FIG. 14A). The tumor tissues were conveniently delineated by their intrinsic RFP fluorescence.
Tumor models of subcutaneous implants and peritoneal implants. All animal procedures were carried out in compliance with the approved animal protocols and guidelines of the Institutional Animal Care and Use Committee at Weil Cornell Medical College. Mice (female, SCID Hairless Outbred Mouse) were purchased from Charles River (Wilmington, MA). To establish the subcutaneous implants, a suspension of OVASAHO/RFP-Luc cells (5.0×10^6) or SKOV3/GFP-Luc cells (5.0×10^6) in 100 μL PBS was inoculated into each flank of the female nude mice on both sides. After two weeks, the tumor implants grew to around 5 mm in size and were used for the spray experiment. To establish the peritoneal implants, SKOV3/GFP-Luc cells (5.0×10^6) suspended in […] were injected into the abdominal cavities of the female nude mice. After two weeks, the tumor growth was examined with an in vivo bioluminescence imaging system followed by peritoneal injection of D-luciferin potassium solution (200 μL, 15 mg/mL) for 10 min. Generally, mice bearing multiple disseminated peritoneal implants of 5 mm size in diameter were used for the experiment.
In vivo fluorescence imaging of subcutaneous tumors. Two subcutaneous tumor models (OVASAHO/RFP-Luc and SKOV3/GFP-Luc) were used to compare the imaging capability of CypH-11, CypH-1, and Cy7. Mice bearing the subcutaneous implants were anesthetized in an induction chamber using 2% isoflurane, and anesthesia was maintained with 1.5-2.0% isoflurane via a nose cone. Sterile surgical tools were used to remove skin around the tumor. The mice images were captured using an IVIS SpectrumCT System from PerkinElmer (Waltham, MA). OVASAHO/RFP-Luc and SKOV3/GFP-Luc tumors were captured under an RFP channel (Excitation: 520-550 nm and Emission: 570-590 nm) and a GFP channel (Excitation: 450-480 nm and Emission: 510 530 nm), respectively. A Cy7 channel (Excitation: 730-760 nm and Emission: 790-810 nm) was applied to evaluate the fluorescence generated by CypH-11, CypH-1, and Cy7. After skin removal, the tumor area and the background fluorescence under the Cy7 channel were measured first. Solutions of CypH-11, CypH-1, and Cy7 (2 μM each) were sprayed on the surgical area, and the fluorescence of the Cy7 channel was measured continuously at each time point (1, 3, 5, 7, 10, and 15 min). Ten, five, and three OVASAHO tumors were used to evaluate CypH-11, CypH-1, and Cy7, respectively. Six SKOV3 tumors were used to evaluate CypH-11. To evaluate the tumor-to-normal tissue ratio, the whole tumor regions and the adjacent open-skin areas were drawn, and their fluorescence intensity was acquired by the IVIS software. Tumor-to-normal tissue ratio value was calculated as the average fluorescence intensity of the tumor divided by that of the normal area. Also, tumor-bearing mice were euthanized by carbon dioxide inhalation or a high dose of isoflurane (5%). The subcutaneous tumors and the adjacent muscles were then extracted, and CypH-11 (2 μM) was sprayed onto them. Images were subsequently captured under GFP/RFP/Cy7 channels.

[3] = Fluorescence properties of the CypH dyes at pH 5.0 and pH 7.5 (Table 2); format: physicochemical; conditions: for Ratio Intensity pH 5.0/7.5: fluorescence intensity pH 5.0 over pH 7.5
Excerpt: The excitation and emission maxima of CypH-1 are 760 and 777 nm, respectively. The signal intensity ratio of pH 5 over pH 7.5 was about 10. The meso-bridge ring size, lipophilicity and electro-density of CypH-1 was modified to provide better optical property. […] The best compound from this group was CypH-5 whose fluorescence ratio of pH 5.0/pH 7.5 was increased to 22. Based on this initial structure and property relationship, the second round of 10 new analogs were designed using CypH-5 as the core, focusing on modifying the electron density on the aniline ring and the indolinium ring. Various alkyl groups, such as methyl, ethyl, propyl, isopropyl and their combinations, were applied to these two positions.
The CypH analogs with other longer alkyl chains had much lower background fluorescence. […] Among them, CypH-11, which has a methyl isopropyl aniline and an isopropyl group on the indolinium ring, gave a 112-fold enhancement in fluorescence signal. CypH-11 has absorbance and emission maxima at 766 nm and 785 nm, respectively (FIG. 4) and was selected as the lead compound (vide infra).

| Structure (SMILES) | pKa [1] | pH dependency of fluorescence [1] | tumor to muscle ratio over the time course ([2]; 2 μM sprayed, all time points) | fluorescence on tumor and normal tissue after spray ([2]; 2 μM sprayed) | Ratio Intensity pH 5.0/7.5 [3] | Ratio Intensity pH 5.0/7.5 ([3]; listed as 1) | FL Intensity pH 5.0 [3] | FL Max (nm) pH 5.0 [3] [nm] | FL Intensity pH 7.5 [3] | FL Max (nm) pH 7.5 [3] [nm] | normalized fluorescence relative to that of CypH-1 ([1]; at pH 6.0-6.5, in solution) | time to fluorescence plateau ([2]; 2 μM in PBS, sprayed once) [min] | signal to background ratio (tumor-to-muscle) ([2]; 1 min after spray) | signal to background ratio (tumor-to-muscle) ([2]; 5 min after spray) | signal to background ratio (tumor-to-muscle) ([2]; 10 min after spray) | Ratio Intensity pH 5.0/7.5 ([3]; listed as 11) |
| --- | --- | --- | --- | --- | --- | --- | --- | --- | --- | --- | --- | --- | --- | --- | --- | --- |
| CN(C)c1ccc(OC2=C(/C=C/C3=[N+](C)c4ccccc4C3(C)C)CCC/C2=C\C=C2\N(C)c3ccccc3C2(C)C)cc1.[Cl-] [CypH-1, reference compound] | 4.7 | low fluorescence in neutral and basic solutions, but strong fluorescence in acidic solutions | around 1.0 | failed to detect the ovarian tumors by spraying; also recorded: very poor fluorescence enhancement in both the tumor and neighboring normal tissues | about 10 | 10.1 | 3363 | 787 | 334 | 782 |  |  |  |  |  |  |
| CC(C)N(C)c1ccc(OC2=C(/C=C/C3=[N+](C(C)C)c4ccccc4C3(C)C)CCC/C2=C\C=C2\N(C(C)C)c3ccccc3C2(C)C)cc1.[I-] [CypH-11] | 6 | low fluorescence in neutral and basic solutions, but strong fluorescence in acidic solutions |  | high fluorescence only on tumors but not on normal tissue | 112 |  | 5028 | 790 | 45 | 785 | about 3.4 fold | ≤ 10 | 1.3 | 1.4 | 1.5 | 111.7 |
